In article PMC6556873, “Rapid Covalent-Probe Discovery by Electrophile-Fragment Screening” (Journal of the American Chemical Society, 2019):
Read-outs that look alike come from different tables or passages of the source.

How the values were obtained:
[1] = in vitro; parameters: species or system HB2, HEK293; conditions: human, ccd841 cells
[2] = in vitro; parameters: species or system CCD841, HEK293; conditions: human, hb2 cells, read-out: HB-2 Cells Viability (%)
[3] = in vitro; parameters: species or system HB2, CCD841; conditions: human, hek293 cells
[4] = target: T1, PCAF (Homo sapiens, UniProt Q92831); parameters: Intact protein LC/MS covalent labelling, fragments in pools of five, 200 uM each, 4 °C; conditions: 24 h, 4 °C, pool of five; 200 µM; covalent
T1 construct: gene KAT2B
Protocol: (§1) Incubations were performed at 200 μM for each compound and 2 μM of protein (10 μM for BSA) for 24 h at 4 °C with moderate shaking. Incubation buffers varied among proteins (PBS pH 7.4 for QSOX1 and BSA; 10 mM HEPES pH 7.5, 0.3 M NaCl, 0.5 mM TCEP for PCAF, UPS8, and NUDT7; […]; 10 mM Na2HPO4 pH 7.5 100 mM NaCl 5 mM β-mercaptoethanol for NV3CP; 20 mM Na phosphate pH 7.5 for NNMT; […]. The reaction was stopped by quenching with formic acid, 0.4% final concentration. Each protein was incubated with the electrophilic library in pools of five compounds per well. The pool’s composition maximized the difference in mass between fragments in the same well. Incubations were performed with each fragment at 200 μM, for 24 h at 4 °C, to allow the screening of proteins that are not stable for long time periods at higher temperatures. Following incubation, we used intact protein [compound left out] chromatography/mass spectrometry (LC/MS) to identify the fragments and quantify their labeling (Figure 3A). […] There was good agreement between the percent of labeling of NUDT7 by 100 random individual compounds and that obtained in pools of five (R^2=0.78; Figure S6 and Data set 2 in the Supporting Information).

[5] = target: T2, NUDT7 (Homo sapiens, UniProt P0C024); parameters: Intact protein LC/MS covalent labelling, fragments in pools of five, 200 uM each, 4 °C; conditions: 24 h, 4 °C, pool of five; 200 µM; covalent
T2 construct: residues 14-235, E. coli, pNIC28-Bsa4, N-terminal His6 tag removed by TEV, construct 26672 Da
Protocol: as §1

[6] = target: T3, OTUB2 (OTUB2A) (Homo sapiens, UniProt Q96DC9); parameters: Intact protein LC/MS covalent labelling, fragments in pools of five, 200 uM each, 4 °C; conditions: 24 h, 4 °C, pool of five; 200 µM; covalent
T3 construct: full length residues 1-234, E. coli BL21(DE3)-R3, His tag removed by TEV, construct 27312 Da
T3 sequence (Q96DC9 1-234): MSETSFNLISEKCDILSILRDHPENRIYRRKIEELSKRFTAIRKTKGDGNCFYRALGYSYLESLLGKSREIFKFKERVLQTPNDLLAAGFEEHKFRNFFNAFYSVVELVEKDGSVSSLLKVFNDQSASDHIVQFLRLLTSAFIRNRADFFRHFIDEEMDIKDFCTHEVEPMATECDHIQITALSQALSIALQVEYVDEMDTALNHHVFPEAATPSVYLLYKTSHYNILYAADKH
Protocol: as §1

[7] = target: T4, BSA (Bos taurus, UniProt P02769); parameters: Intact protein LC/MS covalent labelling, fragments in pools of five, 200 uM each, 4 °C; conditions: 24 h, 4 °C, pool of five; 200 µM; covalent
T4 construct: gene ALB
Protocol: as §1

T2 sequence (P0C024 14-235): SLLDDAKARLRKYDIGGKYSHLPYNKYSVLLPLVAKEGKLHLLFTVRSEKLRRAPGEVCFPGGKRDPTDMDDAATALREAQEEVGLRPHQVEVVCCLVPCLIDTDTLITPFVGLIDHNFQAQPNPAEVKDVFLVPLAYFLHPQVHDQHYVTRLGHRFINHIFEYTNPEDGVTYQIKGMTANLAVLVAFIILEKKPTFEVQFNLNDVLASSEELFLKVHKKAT
T4 sequence (P02769 whole entry, the tested form may be a part): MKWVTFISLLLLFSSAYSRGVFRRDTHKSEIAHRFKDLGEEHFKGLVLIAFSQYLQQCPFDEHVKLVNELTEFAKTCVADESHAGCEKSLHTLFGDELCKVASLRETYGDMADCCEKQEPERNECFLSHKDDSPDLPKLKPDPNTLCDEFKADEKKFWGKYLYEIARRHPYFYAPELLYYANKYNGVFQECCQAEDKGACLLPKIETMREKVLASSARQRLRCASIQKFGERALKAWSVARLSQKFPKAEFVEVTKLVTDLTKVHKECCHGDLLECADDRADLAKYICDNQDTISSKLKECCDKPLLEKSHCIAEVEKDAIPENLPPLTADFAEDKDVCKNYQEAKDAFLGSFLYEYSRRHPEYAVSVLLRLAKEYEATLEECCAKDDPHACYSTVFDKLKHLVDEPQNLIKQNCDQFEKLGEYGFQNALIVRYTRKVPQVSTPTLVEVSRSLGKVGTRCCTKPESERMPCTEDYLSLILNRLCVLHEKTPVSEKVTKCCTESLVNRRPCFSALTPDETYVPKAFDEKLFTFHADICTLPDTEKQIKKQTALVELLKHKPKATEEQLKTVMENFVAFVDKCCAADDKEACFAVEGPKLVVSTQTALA
T1 sequence (Q92831 whole entry, the tested form may be a part): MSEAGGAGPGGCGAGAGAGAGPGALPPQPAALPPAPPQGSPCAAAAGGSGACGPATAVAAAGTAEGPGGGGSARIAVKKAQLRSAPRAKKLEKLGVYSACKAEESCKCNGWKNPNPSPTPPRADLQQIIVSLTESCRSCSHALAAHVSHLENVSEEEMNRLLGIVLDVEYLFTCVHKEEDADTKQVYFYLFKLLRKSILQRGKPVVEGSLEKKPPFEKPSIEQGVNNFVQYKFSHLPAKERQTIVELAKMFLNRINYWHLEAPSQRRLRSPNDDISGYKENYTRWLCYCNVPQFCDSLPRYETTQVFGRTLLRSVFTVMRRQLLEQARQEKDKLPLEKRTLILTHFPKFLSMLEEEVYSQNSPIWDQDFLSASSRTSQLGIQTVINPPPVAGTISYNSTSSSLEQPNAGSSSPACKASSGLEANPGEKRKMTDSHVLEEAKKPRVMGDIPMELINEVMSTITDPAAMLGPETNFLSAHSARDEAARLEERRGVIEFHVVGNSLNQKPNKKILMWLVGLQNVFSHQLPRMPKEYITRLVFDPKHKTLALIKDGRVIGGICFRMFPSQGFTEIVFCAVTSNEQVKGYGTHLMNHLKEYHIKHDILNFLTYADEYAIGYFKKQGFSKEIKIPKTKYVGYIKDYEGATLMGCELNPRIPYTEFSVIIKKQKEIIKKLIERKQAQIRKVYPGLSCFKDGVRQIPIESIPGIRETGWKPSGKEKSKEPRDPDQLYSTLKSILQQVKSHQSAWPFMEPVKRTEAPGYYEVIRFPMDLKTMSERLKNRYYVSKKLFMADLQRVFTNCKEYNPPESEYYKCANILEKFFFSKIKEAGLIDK

Row | SMILES | viability at 48 h, 10 µM [1] [%] | viability at 48 h, 10 µM [2] [%] | viability at 48 h, 10 µM [3] [%] | PCAF [4] | NUDT7 [5] | OTUB2 [6] | BSA [7]
1 | N#CC(c1ccc(F)cc1)N1CCN(C(=O)CCl)CC1 (centres unmarked) [PCM-0102341] | 60.3 | 28.6 | 8.6 | 0 | 0 | 0 | 0
2 | CC(NC(=O)CCl)c1ccc2c(c1)OCCO2 (centres unmarked) [PCM-0102342] | 87.2 | 93.8 | 73.1 | 0 | 0.08 | 0.57 | 0
3 | O=C(CCl)N1CCN(S(=O)(=O)c2ccc(F)c(Cl)c2)CC1 [PCM-0102343] | 14.3 | 1.4 | 2.6 | 0 | 0.12 | 0 | 0
4 | CN(Cc1ccc(Cl)cc1)C(=O)CCl [PCM-0102344] | 24 | 4.3 | 2.1 | 0 | 0.34 | 0 | 0
5 | CN(C)C(=O)c1cccc(NC(=O)CCl)c1 [PCM-0102345] | 61.4 | 52.9 | 13.8 | 0 | 0.1 | 0 | 0
6 | Cl.O=C(CCl)N1CCN(CC(=O)N2CCCC2)CC1 [PCM-0102346] | 80.8 | 98.1 | 99 | 0 | 0 | 0 | 0
7 | C=CC(=O)Nc1ccc2c(c1)OCO2 [PCM-0102347] | 106 | 109 | 79.7 | 0 | 0 | 0 | 0
8 | CC(C)(C)c1cc(NC(=O)CCl)on1 [PCM-0102348] | 59.9 | 32.8 | 60.9 | 0 | 0 | 0 | 0
9 | CN(Cc1ccc(Cl)c(Cl)c1)C(=O)CCl [PCM-0102349] | 3.9 | 1.7 | 1.4 | 0 | 0.59 | 0 | 0
10 | CC(NC(=O)CCl)c1ccc2ccccc2c1 (centres unmarked) [PCM-0102350] | 70.6 | 66 | 58.5 | 0 | 0.31 | 0.47 | 0
11 | Cc1noc(NC(=O)CCl)n1 [PCM-0102351] | 94.9 | 103 | 119 | 0 | 0 | 0 | 0
12 | Cc1cc(C)c(NC(=O)CCl)c(C)c1 [PCM-0102352] | 78.5 | 84.2 | 72.9 | 0 | 0 | 0 | 0
13 | Cc1ccc(C)c(S(=O)(=O)N2CCN(C(=O)CCl)CC2)c1 [PCM-0102353] | 37.7 | 2.1 | 3.2 | 0 | 0.19 | 0.06 | 0
14 | Cc1ccc(Cl)cc1NC(=O)CCl [PCM-0102354] | 44.6 | 16.3 | 9.3 | 0 | 0 | 0 | 0
15 | O=C(CCl)NCC1CCCO1 (centres unmarked) [PCM-0102356] | 104 | 91.4 | 102 | 0 | 0 | 0.05 | 0
16 | Cl.O=C(CCl)N1CCN(c2ccc(O)cc2)CC1 [PCM-0102357] | 76.7 | 31 | 12.7 | 0 | 0 | 0 | 0
17 | Cc1cccc(C(C)C)c1NC(=O)CCl [PCM-0102358] | 89.3 | 102 | 76.5 | 0 | 0 | 0 | 0
18 | CN(C(=O)CCl)C1(c2ccccc2Cl)CCCCC1=O (centres unmarked) [PCM-0102359] | 104 | 85.2 | 87.5 | 0 | 0 | 0 | 0
19 | O=C(CCl)NC(=O)NC12CC3CC(CC(C3)C1)C2 [PCM-0102360] | 73.7 | 3.1 | 46.7 | 0 | 0 | 0.12 | 0
20 | O=C(CCl)N1CCN(S(=O)(=O)c2ccc(F)c(F)c2)CC1 [PCM-0102361] | 48.1 | 2.5 | 5.4 | 0 | 0 | 0 | 0
21 | O=C1CN(C(=O)CCl)c2ccccc2N1 [PCM-0102362] | 92.6 | 79.8 | 61.4 | 0 | 0 | 0 | 0
22 | O=C1CC(C(F)(F)F)N(C(=O)CCl)c2ccccc2N1 (centres unmarked) [PCM-0102363] | 74.6 | 59.3 | 40.4 | 0 | 0.28 | 0 | 0.1
23 | O=C(CCl)Nc1cccc(F)c1 [PCM-0102364] | 45.7 | 25 | 5.9 | 0 | 0.09 | 0 | 0
24 | COC(=O)c1sccc1NC(=O)CCl [PCM-0102367] | 85.5 | 75 | 54 | 0 | 0.12 | 0 | 0
25 | CCc1ccccc1NC(=O)CCl [PCM-0102369] | 76.1 | 78.3 | 56.7 | 0 | 0 | 0 | 0
26 | O=C(CCl)NC(=O)Nc1ccccc1F [PCM-0102376] | 80.5 | 63.5 | 67.8 | 0 | 0 | 0 | 0
27 | O=C(CCl)N1CCCCCCC1 [PCM-0102377] | 82.1 | 36.7 | 43.5 | 0 | 0 | 0 | 0
28 | O=C(CCl)N1CCN(c2ncc(C(F)(F)F)cc2Cl)CC1 [PCM-0102378] | 2.9 | 1.8 | 1.8 | 0 | 0.14 | 0.05 | 0
29 | Cc1ccc(S(=O)(=O)N2CCN(C(=O)CCl)CC2)cc1C [PCM-0102379] | 22.6 | 1.8 | 2.7 | 0 | 0.1 | 0 | 0
